Test results: ChEMBL document CHEMBL1153681 (Bioorg Med Chem Lett, 1992)

Columns and labels:
[1] = biological target: Mu-type opioid receptor (Rattus norvegicus, UniProt P33535)
Description: Evaluated for its affinity towards Opioid receptor mu 1 in rat forebrain by displacing the radioligand [3H]sufentanil.

[2] = biological target: Delta-type opioid receptor (Rattus norvegicus, UniProt P33533); assay: Evaluated for its affinity towards Opioid receptor delta 1 in rat fore brain by displacing the radioligand [3H]DPDPE.
[3] = species: Mus musculus; assay: Evaluated for its ability to inhibit electrically induced contractions in the mouse vas deferens (MVD); type: functional, organism-based
[4] = Ratio of the ability to inhibit electrically induced contractions in the mouse vas deferens (MVD) to that of the guinea pig ileum (GPI); type: functional
[5] = species: Cavia porcellus; assay: Evaluated for its ability to inhibit electrically induced contractions in the guinea pig ileum (GPI); type: functional, organism-based

Chain of Mu-type opioid receptor (P33535 whole entry): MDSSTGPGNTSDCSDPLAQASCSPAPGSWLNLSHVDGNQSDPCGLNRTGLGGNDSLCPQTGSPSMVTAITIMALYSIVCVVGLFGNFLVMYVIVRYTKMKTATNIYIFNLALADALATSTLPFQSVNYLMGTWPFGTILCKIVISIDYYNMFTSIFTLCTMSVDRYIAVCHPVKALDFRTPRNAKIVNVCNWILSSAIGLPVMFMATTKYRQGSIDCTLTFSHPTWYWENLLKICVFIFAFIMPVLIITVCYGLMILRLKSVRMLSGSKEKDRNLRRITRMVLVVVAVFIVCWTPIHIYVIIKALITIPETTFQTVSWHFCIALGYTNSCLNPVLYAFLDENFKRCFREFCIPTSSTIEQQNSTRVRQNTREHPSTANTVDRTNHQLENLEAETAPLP
Chain of Delta-type opioid receptor (P33533 whole entry): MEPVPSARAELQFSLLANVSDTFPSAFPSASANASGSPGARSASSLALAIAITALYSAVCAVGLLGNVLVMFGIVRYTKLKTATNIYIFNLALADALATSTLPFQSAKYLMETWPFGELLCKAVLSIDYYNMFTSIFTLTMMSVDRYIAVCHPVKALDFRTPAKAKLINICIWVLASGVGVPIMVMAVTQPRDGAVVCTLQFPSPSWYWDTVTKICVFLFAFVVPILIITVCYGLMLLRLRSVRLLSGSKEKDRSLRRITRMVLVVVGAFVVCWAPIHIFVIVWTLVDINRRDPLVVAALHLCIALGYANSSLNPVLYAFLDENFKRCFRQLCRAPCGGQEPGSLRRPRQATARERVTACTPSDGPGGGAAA

| Structure (SMILES) | IC50 [1] | IC50 [2] | IC50 [3] | Ratio [4] | IC50 [5] |
| --- | --- | --- | --- | --- | --- |
| C[C@H](NC(=O)[C@@H](N)Cc1ccc(O)cc1)C(=O)N[C@H]1Cc2ccccc2CN(CC(=O)N[C@@H](Cc2ccc(O)cc2)C(=O)N2CCC[C@H]2C(=O)N[C@@H](CO)C(N)=O)C1=O | 11 nM | 17.4 nM | 0.66 nM | 0.06 | 10.8 nM |
| CC(C)[C@H](NC(=O)[C@H](CC(=O)O)NC(=O)[C@H](Cc1ccccc1)NC(=O)[C@@H](C)NC(=O)[C@@H](N)Cc1ccc(O)cc1)C(=O)N[C@H](C(=O)NCC(N)=O)C(C)C [DELTORPHIN C] |  |  | 0.32 nM | <=0.0001 | ≥ 3000 nM |
| C[C@@H](NC(=O)[C@@H](N)Cc1ccc(O)cc1)C(=O)N[C@@H](Cc1ccccc1)C(=O)NCC(=O)N[C@@H](Cc1ccc(O)cc1)C(=O)N1CCC[C@H]1C(=O)N[C@@H](CO)C(N)=O [DERMORPHIN] | 2.4 nM |  |  |  | 1.06 nM |
